Here are results for one compound from publication PMC9488892 (Medicinal Chemistry Research, 2022).

Assay [1] addresses melatonin type I (MT1) receptor (Homo sapiens, UniProt P48039). Format: cell-based.
Assay [2] addresses T1, melatonin type II (MT2) receptor (Homo sapiens, UniProt P49286).
T1 sequence (P49286 1-362): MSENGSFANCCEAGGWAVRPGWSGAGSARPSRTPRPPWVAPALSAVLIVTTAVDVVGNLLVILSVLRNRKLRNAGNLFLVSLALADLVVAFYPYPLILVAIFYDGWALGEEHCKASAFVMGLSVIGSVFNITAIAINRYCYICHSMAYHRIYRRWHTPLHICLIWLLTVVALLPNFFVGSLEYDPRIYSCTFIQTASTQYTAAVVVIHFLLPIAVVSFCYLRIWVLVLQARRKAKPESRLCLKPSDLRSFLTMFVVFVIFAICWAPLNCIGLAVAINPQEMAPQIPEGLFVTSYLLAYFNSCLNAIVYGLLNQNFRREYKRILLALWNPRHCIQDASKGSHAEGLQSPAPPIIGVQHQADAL
Format: cell-based.

Chain of melatonin type I (MT1) receptor (P48039 whole entry): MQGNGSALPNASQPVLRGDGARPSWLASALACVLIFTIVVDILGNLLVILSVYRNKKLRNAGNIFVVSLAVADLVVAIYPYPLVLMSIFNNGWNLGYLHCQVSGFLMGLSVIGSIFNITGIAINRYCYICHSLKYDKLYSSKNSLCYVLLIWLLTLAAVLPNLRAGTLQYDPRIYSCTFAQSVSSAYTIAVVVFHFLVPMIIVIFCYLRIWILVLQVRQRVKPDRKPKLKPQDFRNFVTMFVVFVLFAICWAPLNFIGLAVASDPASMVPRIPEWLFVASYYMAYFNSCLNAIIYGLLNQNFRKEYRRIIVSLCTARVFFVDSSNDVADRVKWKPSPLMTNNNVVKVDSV

On to `Cc1cc2c(cc1O)[C@@H](C)[C@H]1Oc3cc(C)c(O)cc3[C@@]1(CN1CCN(C)CC1)O2` [compound 13, (5aS,10aR,11R)-3,8,11-trimethyl-5a-((4-methylpiperazin-1-yl)methyl)-5a,10a-dihydro-11H-benzofuro[3,2-b]chromene-2,7-diol], for which the EC50 came to 200 µM in assay [1] and 240 µM in assay [2].
